The text below walks through data of patent publication US10124022B2, “Compositions and methods for enhancing the effectiveness of systemic, HIPEC, IP, and related cancer treatments” (ChemoTherapeutics, LLC, priority 2010, dated 2018).

Series [1] relates to HCT-116 cells. In words: MTS assay, two-hour drug treatment, drugs replaced with fresh medium, measured after one day (Study 7b). Particulars: FIG. 7b. Background: Tetrazolium assays rely on reduction of a dye to a coloured formazan, in cell work by metabolically active cells.
Procedure: For each study, two plates of HCT-116 cells were seeded in 96-well cell culture plates (2000 cells per well for three-day studies and 10,000 cells for one-day studies). The next day, drugs prepared in 200 μl of culture medium were added to the wells. […] Each treatment was completed in triplicate. One plate was incubated at 37° C. while the other plate was incubated at 42° C. (hyperthermia) for one hour (two hours for study 7 and 8). After the treatment, 4000 freshly harvested cells (cells which were not subjected to hyperthermia) were added to 3 wells of each plate to assess the effect of hyperthermia (for one-day experiments, 20,000 cells will be added). […] Cell viability was measured using MTS assay (Promega CellTiter 96 Aqueous MTS Assay reagents).
Tested the short-term cytotoxic effects of combination treatments (±hyperthermia at 42° C. for two hour) with chemotherapeutic reagents (0.2 μM Mitomycin C or 10 μM Cisplatin) and three non-chemotherapeutic reagents (1.25 mM Vitamin C, 20 μM Selenite and 150 μM Quercetin). […] Cytotoxicity was measured with MTS assay immediately after the two-hour drug/hyperthermia treatment. • b. […] Drugs were replaced with fresh medium after the treatment, and the cytotoxic effect was measured after one day. • c. Cells were incubated with drugs for one day before the cytotoxicity was measured.
For series [2], the system named is HCT-116 cells. Nature of the series: MTS cell viability assay, drugs ± one-hour hyperthermia, cytotoxicity measured after three days (Studies 1-6).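 For all read-outs here: Drug-treated HCT-116 cells held one hour at 42 °C (hyperthermia) or 37 °C, then cultured at 37 °C, viability read by MTS in triplicate wells.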 Particulars: for % cell survival / GI50 / growth inhibition at the concentrations tested / growth promoting effect / cell survival: three days; for GI50: HCT-116 cells; for effect on the cytotoxicity caused by Selenite: Study 6, FIG. 6c; for cell survival: 200 nM.
Procedure: For each study, two plates of HCT-116 cells were seeded in 96-well cell culture plates (2000 cells per well for three-day studies and 10,000 cells for one-day studies). The next day, drugs prepared in 200 μl of culture medium were added to the wells. […] Each treatment was completed in triplicate. One plate was incubated at 37° C. while the other plate was incubated at 42° C. (hyperthermia) for one hour (two hours for study 7 and 8). After the treatment, 4000 freshly harvested cells (cells which were not subjected to hyperthermia) were added to 3 wells of each plate to assess the effect of hyperthermia (for one-day experiments, 20,000 cells will be added). Both plates were incubated at 37° C. for the number of days specified in each study. Cell viability was measured using MTS assay (Promega CellTiter 96 Aqueous MTS Assay reagents).
Cytotoxicity was measured after three days.
The non-chemotherapeutic agent combinations tested were: Vitamin C/Selenite and Vitamin C/Selenite/Quercetin. Cytotoxicity was measured after three days.
The non-chemotherapeutic agent combinations tested were: Vitamin E/Selenite/Quercetin and Selenite/Quercetin. Cytotoxicity was measured after three days.
Tested the cytotoxic effects of combination treatments (±hyperthermia at 42° C. for one hour) with chemotherapeutic reagents (Mitomycin C at 0.2 and 0.8 μM or Cisplatin at 2.5 and 10 μM) and four non-chemotherapeutic reagents (100 nM Vitamin D, 40 μM Vitamin E, 20 μM Selenite and 150 μNA Quercetin). The non-chemotherapeutic agent combinations tested were: Quercetin/Vitamin D/Vitamin E/Selenite, Vitamin E/Selenite, and Vitamin D/Vitamin E/Selenite. Cytotoxicity was measured after three days.
The non-chemotherapeutic agent combinations tested were: Vitamin C/Selenite, Vitamin C/Quercetin, Selenite/Quercetin and Vitamin C/Selenite/Quercetin. Cytotoxicity was measured after three days.

The mark [3] stands for this setting: read-out: Growth inhibition (GI50).
Setting [4] is: Study 5, no chemotherapeutic, 100 nM Vitamin D, 40 μM Vitamin E, 20 μM Selenite, 150 μM Quercetin as named, 37° C.
The mark [5] stands for this setting: Study 5, no chemotherapeutic, 100 nM Vitamin D, 40 μM Vitamin E, 20 μM Selenite, 150 μM Quercetin as named, 42° C. 1 hr.
The mark [6] stands for this setting: Study 4, no chemotherapeutic, 40 μM Vitamin E, 20 μM Selenite, 150 μM Quercetin as named, 37° C.
Where [7] appears, read: Study 4, no chemotherapeutic, 40 μM Vitamin E, 20 μM Selenite, 150 μM Quercetin as named, 42° C. 1 hr.

Where “and” joins values, the source holds several entries; their conditions need not be identical. Equal values may be shown once. Read-outs that look alike come from different tables or passages of the source.

`N.N.[Cl][Pt][Cl]` [Cisplatin, reference compound]: in series [1], the “cancer cell killing after 2 hours of treatment, cell survival measured one day later” value is reported as “additional killing effect”. In addition, the “% cell survival” value in series [2] (Study 4, 2.5 μM Cisplatin, alone or with 40 μM Vitamin E, 20 μM Selenite, 150 μM Quercetin as named, 37° C.) is 74.7%; in series [2] (Study 4, 2.5 μM Cisplatin, alone or with 40 μM Vitamin E, 20 μM Selenite, 150 μM Quercetin as named, 42° C. 1 hr) it was 61.7%; in series [2] (Study 4, 10 μM Cisplatin, alone or with 40 μM Vitamin E, 20 μM Selenite, 150 μM Quercetin as named, 37° C.), 37.5%; in series [2] (Study 4, 10 μM Cisplatin, alone or with 40 μM Vitamin E, 20 μM Selenite, 150 μM Quercetin as named, 42° C. 1 hr), 37.5%; in series [2] (Study 5, 2.5 μM Cisplatin, alone or with 100 nM Vitamin D, 40 μM Vitamin E, 20 μM Selenite, 150 μM Quercetin as named, 37° C.), 86.1%; in series [2] (Study 5, 2.5 μM Cisplatin, alone or with 100 nM Vitamin D, 40 μM Vitamin E, 20 μM Selenite, 150 μM Quercetin as named, 42° C. 1 hr), 76.0%. For the same molecule, the “% cell survival” value in series [2] (Study 5, 10 μM Cisplatin, alone or with 100 nM Vitamin D, 40 μM Vitamin E, 20 μM Selenite, 150 μM Quercetin as named, 37° C.) was 52.1%; in series [2] (Study 5, 10 μM Cisplatin, alone or with 100 nM Vitamin D, 40 μM Vitamin E, 20 μM Selenite, 150 μM Quercetin as named, 42° C. 1 hr), 41.9%. Further, the GI50 in series [2] (setting [3]) was 12 µM.
Take `CO[C@@]12[C@H](COC(N)=O)C3=C(C(=O)C(C)=C(N)C3=O)N1C[C@@H]1N[C@@H]12` [Mitomycin C, reference compound]: the “% cell survival” value amounted to 35% in series [2] (Study 3, 0.2 μM Mitomycin C, alone or with 1.25 mM Vitamin C, 20 μM Selenite as named, 37° C.); 36.9% in series [2] (Study 3, 0.2 μM Mitomycin C, alone or with 1.25 mM Vitamin C, 20 μM Selenite as named, 42° C. 1 hr); 16.9% in series [2] (Study 3, 0.8 μM Mitomycin C, alone or with 1.25 mM Vitamin C, 20 μM Selenite as named, 37° C.); 15.5% in series [2] (Study 3, 0.8 μM Mitomycin C, alone or with 1.25 mM Vitamin C, 20 μM Selenite as named, 42° C. 1 hr); 33.3% in series [2] (Study 4, 0.2 μM Mitomycin C, alone or with 40 μM Vitamin E, 20 μM Selenite, 150 μM Quercetin as named, 37° C.); 36.5% in series [2] (Study 4, 0.2 μM Mitomycin C, alone or with 40 μM Vitamin E, 20 μM Selenite, 150 μM Quercetin as named, 42° C. 1 hr). Also, the “% cell survival” value was 16.4% in series [2] (Study 4, 0.8 μM Mitomycin C, alone or with 40 μM Vitamin E, 20 μM Selenite, 150 μM Quercetin as named, 37° C.) and 22.1% in series [2] (Study 4, 0.8 μM Mitomycin C, alone or with 40 μM Vitamin E, 20 μM Selenite, 150 μM Quercetin as named, 42° C. 1 hr). For the same molecule, in series [2] (setting [3]), the GI50 was 1.3 µM.
Regarding `O=c1c(O)c(-c2ccc(O)c(O)c2)oc2cc(O)cc(O)c12` [Quercetin], the “% cell survival” value in series [2] (Study 2, 20 μM, 37° C.) was determined as 129%; in series [2] (Study 2, 20 μM, 42° C. 1 hr) it was 118%; in series [2] (Study 2, 100 μM, 37° C.) it was 123%; in series [2] (Study 2, 100 μM, 42° C. 1 hr), 111%; in series [2] (setting [4]) it was 98.0%; in series [2] (setting [5]) it was 89.5%. Besides, the “growth inhibition at the concentrations tested” value in series [2] (Study 2) is listed as “did not show significant growth inhibition”. Moreover, the “growth promoting effect” value in series [2] (Study 2) is recorded as “slight growth promoting effect at the lower concentrations tested”. Besides, the “cancer cell killing without chemotherapeutic agent, compared to the agents alone” value in series [2] (Study 3, FIG. 3b) is listed as “did not show enhanced killing”. Moreover, the “effect on cytotoxicity of the co-administered treatment” value in series [2] (Study 4, FIG. 4b-4d) is listed as “reduced the cytotoxicity of Selenite”; in series [2] (Study 5, FIG. 5b-5e) it was “reduced the cytotoxicity of Selenite/Vit-D/Vit-E”. Moreover, the “effect on the cytotoxicity caused by Selenite” value in series [2] was “reduced the cytotoxicity caused by Selenite”.
For the molecule `O=[Se](O)O` [Selenite], the “effect of hyperthermia treatment on cell growth” value in series [2] (Study 2, 42° C. 1 hr vs 37° C.) is “No significant effect”. Moreover, the “% cell survival” value is 45% in series [2] (setting [6]); 39.7% and 39.8% in series [2] (setting [7]); 42.6% in series [2] (setting [4]); 32.9% in series [2] (setting [5]). The GI50 in series [2] (setting [3]) is ~30 µM.
As for `O=C1O[C@H]([C@@H](O)CO)C(O)=C1O` [Vitamin C], in series [2], the GI50 is ~2000 µM. The “% cell survival” value in series [2] (Study 2, 0.08 mM, 37° C.) is 102%; in series [2] (Study 2, 0.08 mM, 42° C. 1 hr) it was 92.6%; in series [2] (Study 2, 0.31 mM, 37° C.), 97.6%; in series [2] (Study 2, 0.31 mM, 42° C. 1 hr), 89%. For the same molecule, in series [2], the “effect on the cytotoxicity caused by Selenite” value is recorded as “did not appear to modulate the cytotoxicity caused by Selenite”.
Consider Vitamin D, for which the cell survival in series [2] (Study 2, 37° C.) was determined as 122%; in series [2] (Study 2, 42° C. 1 hr), 110%. Further, in series [2] (Study 2), the “growth inhibition at the concentrations tested” value is given as “did not show significant growth inhibition”. Moreover, the “growth promoting effect” value in series [2] (Study 2) was “slight growth promoting effect at the higher concentrations tested”.
For the molecule Vitamin E, the “% cell survival” value in series [2] (Study 2, 0.32 μM, 37° C.) is on record as 111%; in series [2] (Study 2, 0.32 μM, 42° C. 1 hr) it was 95.5%; in series [2] (Study 2, 1.6 μM, 37° C.) it was 116%; in series [2] (Study 2, 1.6 μM, 42° C. 1 hr), 102%; in series [2] (setting [6]), 105.7%; in series [2] (setting [7]), 81.6%. Besides, the “% cell survival” value in series [2] (setting [4]) was 112.2%; in series [2] (setting [5]) it was 95.5%. The “growth promoting effect” value in series [2] (Study 2) was “slight growth promoting effect at the lower concentrations tested for 37 °C treated group”. Also, the GI50 in series [2] (setting [3]) is ~90 µM.

In general, GI50 refers to the concentration giving 50% growth inhibition.
